Assay results from publication PMC6804162, “Inhibitory Effects of Novel 7-Substituted 6-iodo-3-O-Flavonol Glycosides against Cholinesterases and β-secretase Activities, and Evaluation for Potential Antioxidant Properties” (Molecules, 2019).
“And” between values parts separate entries of the source, which are not always exact repeats. Identical values can stand only once.

Columns and labels:
[1] = DPPH radical scavenging activity assay; conditions: DPPH 0.20 mM in methanol, 45 min in the dark, mean ± SD
Experimental: The test compounds at various concentration ranging from (0 to 40 µM) in DMSO were mixed with a solution of DPPH (0.20 mM) in methanol. […] All tests and analyses were run in triplicate and averaged. The inhibition was calculated in terms of percentage using the formula below:DPPH radical scavenged (%) = [(AbC ‒ AbS)/AbC] × 100(2) where AbC is absorbance of control and AbS the absorbance of the test sample.

[2] = biological target: butyrylcholinesterase (BChE) (Homo sapiens, UniProt P06276); test: biochemical; conditions: for SI AChE/BChE: BChE selectivity index = IC50 (AChE)/IC50 (BChE); for IC50: mean ± SD, three independent experiments
Chain of butyrylcholinesterase (BChE) (P06276 29-602): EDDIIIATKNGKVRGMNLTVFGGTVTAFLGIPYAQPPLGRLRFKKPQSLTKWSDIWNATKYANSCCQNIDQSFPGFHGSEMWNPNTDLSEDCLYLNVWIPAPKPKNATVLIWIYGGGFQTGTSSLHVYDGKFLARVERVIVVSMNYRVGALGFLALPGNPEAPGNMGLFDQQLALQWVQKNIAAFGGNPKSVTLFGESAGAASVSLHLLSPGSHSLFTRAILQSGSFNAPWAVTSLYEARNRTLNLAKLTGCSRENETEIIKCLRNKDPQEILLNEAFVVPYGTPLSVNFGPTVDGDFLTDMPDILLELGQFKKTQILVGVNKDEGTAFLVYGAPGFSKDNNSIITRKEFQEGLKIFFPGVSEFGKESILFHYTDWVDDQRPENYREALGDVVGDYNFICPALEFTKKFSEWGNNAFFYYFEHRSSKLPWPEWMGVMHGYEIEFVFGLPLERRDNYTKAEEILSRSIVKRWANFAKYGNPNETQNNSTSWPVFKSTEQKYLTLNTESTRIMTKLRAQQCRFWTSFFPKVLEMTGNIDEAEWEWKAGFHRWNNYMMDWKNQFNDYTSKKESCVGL
Experimental: (§1) The IC50 and standard deviation values were determined graphically using Graph Pad Prism.

[3] = biological target: acetylcholinesterase (AChE) (Homo sapiens, UniProt P22303); test: biochemical; type: biochemical; conditions: for SI BChE/AChE: AChE selectivity index = IC50 (BChE)/IC50 (AChE); for IC50: mean ± SD, three independent experiments
Chain of acetylcholinesterase (AChE) (P22303 32-614): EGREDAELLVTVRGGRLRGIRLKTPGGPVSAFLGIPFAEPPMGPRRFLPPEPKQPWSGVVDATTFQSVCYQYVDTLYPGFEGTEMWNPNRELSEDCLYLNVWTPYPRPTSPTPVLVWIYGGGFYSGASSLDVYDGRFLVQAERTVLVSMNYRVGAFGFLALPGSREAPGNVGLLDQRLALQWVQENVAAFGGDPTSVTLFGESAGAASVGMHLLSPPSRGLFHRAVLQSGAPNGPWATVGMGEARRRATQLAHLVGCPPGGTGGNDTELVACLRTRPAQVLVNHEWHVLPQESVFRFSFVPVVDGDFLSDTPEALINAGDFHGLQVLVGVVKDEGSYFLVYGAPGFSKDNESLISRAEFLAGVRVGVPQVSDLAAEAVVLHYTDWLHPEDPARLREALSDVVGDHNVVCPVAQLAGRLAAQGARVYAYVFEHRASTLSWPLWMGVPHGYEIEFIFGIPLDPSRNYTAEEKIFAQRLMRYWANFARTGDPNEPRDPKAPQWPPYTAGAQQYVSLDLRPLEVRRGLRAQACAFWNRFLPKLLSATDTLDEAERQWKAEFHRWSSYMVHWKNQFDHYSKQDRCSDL
Experimental: as §1

β-secretase (BACE-1) [4] = biological target: T1, β-secretase (BACE-1) (Homo sapiens, UniProt P56817); test: Kinetic study against β-secretase (Lineweaver–Burk and Dixon plots); type: biochemical; conditions: for Mode of inhibition of β-secretase: Lineweaver–Burk plot; for Ki: from Dixon plots, read-out: Ki for inhibition of β-secretase
T1 construct: purchased Pan Vera; host or cells: baculovirus expression system
T1 sequence (P56817 46-501): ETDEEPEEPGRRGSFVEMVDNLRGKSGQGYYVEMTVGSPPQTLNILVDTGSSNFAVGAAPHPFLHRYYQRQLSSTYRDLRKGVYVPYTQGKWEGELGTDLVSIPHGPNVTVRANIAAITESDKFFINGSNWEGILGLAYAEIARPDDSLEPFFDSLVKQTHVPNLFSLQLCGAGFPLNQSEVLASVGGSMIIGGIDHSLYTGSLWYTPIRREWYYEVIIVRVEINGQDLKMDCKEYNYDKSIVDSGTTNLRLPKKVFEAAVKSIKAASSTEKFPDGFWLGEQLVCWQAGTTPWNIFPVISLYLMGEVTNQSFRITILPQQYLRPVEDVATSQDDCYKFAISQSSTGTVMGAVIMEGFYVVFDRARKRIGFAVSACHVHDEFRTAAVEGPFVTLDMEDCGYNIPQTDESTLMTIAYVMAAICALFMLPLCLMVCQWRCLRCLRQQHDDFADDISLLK
Experimental: (§2) The Lineweaver–Burk plots were drawn to determine the type of inhibition these compounds display against AChE and BChE (refer to Figure S2. In the Supplementary Material for the corresponding graphs).
(§3) Kinetic evaluation of 2l and 2p against ChEs or β-secretase were conducted following similar procedures previously employed for the corresponding flavonol precursors.

BChE = BChE (Homo sapiens, UniProt P06276); test: Kinetic study against BChE (Lineweaver–Burk and Dixon plots); type: biochemical; conditions: for Mode of inhibition of BChE: Lineweaver–Burk plot; for Ki: from Dixon plots
Chain of BChE (P06276 29-602): as the sequence (P06276 29-602) above
Experimental: as §2, §3

β-secretase (BACE-1) [5] = biological target: T1, β-secretase (BACE-1); test: In vitro β-secretase inhibitory FRET assay; type: biochemical; conditions: 60 min incubation, read-out: IC50 (µM) against β-secretase activity
Experimental: The inhibition ratio was calculated using the following equation:Inhibition (%) = [1 − (S − S0)/(C − C0)] × 100(1) where C is the fluorescence of control (enzyme, assay buffer, and substrate) after 60 min of incubation, C0 is the fluorescence of control at time 0, S is the fluorescence of tested samples (enzyme, sample solution, and substrate) after 60 min of incubation, and S0 the fluorescence of the tested samples at time 0.

AChE = AChE (Homo sapiens, UniProt P22303); test: Kinetic study against AChE (Lineweaver–Burk and Dixon plots); type: biochemical; conditions: for Mode of inhibition of AChE: Lineweaver–Burk plot; for Ki: from Dixon plots, read-out: Inhibition constant (Ki) against AChE
Chain of AChE (P22303 32-614): as the sequence (P22303 32-614) above
Experimental: as §2, §3

O=C1O[C@H]([C@@H](O)CO)C(O)=C1O [Ascorbic acid, ascorbic acid, reference compound]
IC50 [1]: 5.5 ± 0.02 µM

CC(=O)OC[C@H]1O[C@@H](Oc2c(-c3ccccc3)oc3cc(F)c(I)cc3c2=O)[C@H](OC(C)=O)[C@@H](OC(C)=O)[C@@H]1OC(C)=O [Compound 2a, 7-Fluoro-6-iodo-2-phenyl-4H-chromen-4-one-3-O-2,3,4,6-O-tetraacetyl-β-d-glucopyranoside]
SI AChE/BChE [2]: 0.71
IC50 [2]: 26.17 ± 0.01 µM
SI BChE/AChE [3]: 1.40
IC50 [3]: 18.72 ± 0.03 µM

CC(=O)OC[C@H]1O[C@@H](Oc2c(-c3ccc(F)cc3)oc3cc(F)c(I)cc3c2=O)[C@H](OC(C)=O)[C@@H](OC(C)=O)[C@@H]1OC(C)=O [Compound 2b, 7-Fluoro-(4-fluorophenyl)-6-iodo-4H-chromen-4-one-3-O-2,3,4,6-O-tetraacetyl-β-d-glucopyranoside]
SI AChE/BChE [2]: 1.3
IC50 [2]: 21.9 ± 0.04 µM
SI BChE/AChE [3]: 0.78
IC50 [3]: 28.2 ± 0.02 µM

CC(=O)OC[C@H]1O[C@@H](Oc2c(-c3ccc(Cl)cc3)oc3cc(F)c(I)cc3c2=O)[C@H](OC(C)=O)[C@@H](OC(C)=O)[C@@H]1OC(C)=O [Compound 2c, 7-Fluoro-2-(4-Chlorophenyl)-6-iodo-4H-chromen-4-one-3-O-2,3,4,6-O-tetraacetyl-β-d-glucopyranoside]
SI AChE/BChE [2]: 0.80
IC50 [2]: 30.84 ± 0.04 µM
SI BChE/AChE [3]: 1.25
IC50 [3]: 24.74 ± 0.03 µM

COc1ccc(-c2oc3cc(F)c(I)cc3c(=O)c2O[C@@H]2O[C@H](COC(C)=O)[C@@H](OC(C)=O)[C@H](OC(C)=O)[C@H]2OC(C)=O)cc1 [Compound 2d, 7-Fluoro-6-iodo-2-(4-methoxyphenyl)-4H-chromen-4-one-3-O-2,3,4,6-O-tetraacetyl-β-d-glucopyranoside]
SI AChE/BChE [2]: 3.13
IC50 [2]: 19.25 ± 0.11 µM
SI BChE/AChE [3]: 0.32
IC50 [3]: 60.4 ± 0.05 µM

CC(=O)OCC1OC(Oc2c(-c3ccccc3)oc3cc(Cl)c(I)cc3c2=O)C(OC(C)=O)C(OC(C)=O)C1OC(C)=O (stereo not drawn) [Compound 2e, 7-Chloro-6-iodo-2-phenyl-4H-chromen-4-one-3-O-2,3,4,6-O-tetraacetyl-β-d-glucopyranoside]
SI AChE/BChE [2]: 3.85
IC50 [2]: 9.03 ± 0.12 µM
SI BChE/AChE [3]: 0.26
IC50 [3]: 34.44 ± 0.03 µM

CC(=O)OC[C@H]1O[C@@H](Oc2c(-c3ccc(F)cc3)oc3cc(Cl)c(I)cc3c2=O)[C@H](OC(C)=O)[C@@H](OC(C)=O)[C@@H]1OC(C)=O [Compound 2f, 7-Chloro-2-(4-fluorophenyl)-6-iodo-4H-chromen-4-one-3-O-2,3,4,6-O-tetraacetyl-β-d-glucopyranoside]
SI AChE/BChE [2]: 2.27
IC50 [2]: 31.09 ± 0.04 µM
SI BChE/AChE [3]: 0.44
IC50 [3]: 70.66 ± 0.01 µM

CC(=O)OCC1OC(Oc2c(-c3ccc(Cl)cc3)oc3cc(Cl)c(I)cc3c2=O)C(OC(C)=O)C(OC(C)=O)C1OC(C)=O (stereo not drawn) [Compound 2g, 7-Chloro-2-(4-chlorophenyl)-6-iodo-4H-chromen-4-one-3-O-2,3,4,6-O-tetraacetyl-β-d-glucopyranoside]
IC50 [1]: 13.1 ± 0.01 µM
SI AChE/BChE [2]: 4.35
IC50 [2]: 7.15 ± 0.01 µM
SI BChE/AChE [3]: 0.23
IC50 [3]: 31.44 ± 0.13 µM

COc1ccc(-c2oc3cc(Cl)c(I)cc3c(=O)c2O[C@@H]2O[C@H](COC(C)=O)[C@@H](OC(C)=O)[C@H](OC(C)=O)[C@H]2OC(C)=O)cc1 [Compound 2h, 7-Chloro-6-iodo-2-(4-methoxyphenyl)-4H-chromen-4-one-3-O-2,3,4,6-O-tetraacetyl-β-d-glucopyranoside]
SI AChE/BChE [2]: 2.56
IC50 [2]: 10.1 ± 0.06 µM
SI BChE/AChE [3]: 0.39
IC50 [3]: 25.92 ± 0.02 µM

CC(=O)OC[C@H]1O[C@@H](Oc2c(-c3ccccc3)oc3cc(Br)c(I)cc3c2=O)[C@H](OC(C)=O)[C@@H](OC(C)=O)[C@@H]1OC(C)=O [Compound 2i, 7-Bromo-6-iodo-2-phenyl-4H-chromen-4-one-3-O-2,3,4,6-O-tetraacetyl-β-d-glucopyranoside]
SI AChE/BChE [2]: 7.14
IC50 [2]: 9.79 ± 0.04 µM
SI BChE/AChE [3]: 0.14
IC50 [3]: 70.56 ± 0.03 µM

CC(=O)OC[C@H]1O[C@@H](Oc2c(-c3ccc(F)cc3)oc3cc(Br)c(I)cc3c2=O)[C@H](OC(C)=O)[C@@H](OC(C)=O)[C@@H]1OC(C)=O [Compound 2j, 7-Bromo-2-(4-fluorophenyl)-6-iodo-4H-chromen-4-one-3-O-2,3,4,6-O-tetraacetyl-β-d-glucopyranoside]
SI AChE/BChE [2]: 0.76
IC50 [2]: 40.93 ± 0.04 µM
SI BChE/AChE [3]: 1.31
IC50 [3]: 31.2 ± 0.05 µM

CC(=O)OCC1OC(Oc2c(-c3ccc(Cl)cc3)oc3cc(Br)c(I)cc3c2=O)C(OC(C)=O)C(OC(C)=O)C1OC(C)=O (stereo not drawn) [Compound 2k, 7-Bromo-2-(4-chlorophenyl)-6-iodo-4H-chromen-4-one-3-O-2,3,4,6-O-tetraacetyl-β-d-glucopyranoside]
IC50 [1]: 11.4 ± 0.02 µM
SI AChE/BChE [2]: 0.17
IC50 [2]: 29.95 ± 0.02 µM
SI BChE/AChE [3]: 5.78
IC50 [3]: 5.18 ± 0.01 µM

COc1ccc(-c2oc3cc(Br)c(I)cc3c(=O)c2OC2OC(COC(C)=O)C(OC(C)=O)C(OC(C)=O)C2OC(C)=O)cc1 (stereo not drawn) [Compound 2l, 7-Bromo-6-iodo-2-(4-methoxyphenyl)-4H-chromen-4-one-3-O-2,3,4,6-O-tetraacetyl-β-d-glucopyranoside]
Mode of inhibition of β-secretase (β-secretase (BACE-1) [4]): non-competitive
Ki (β-secretase (BACE-1) [4]): 2.42 ± 0.05 µM
IC50 [1]: 21.6 ± 0.03 µM
Mode of inhibition of BChE (BChE): non-competitive
Ki (BChE): 1.51 ± 0.04 µM
IC50 (β-secretase (BACE-1) [5]): 18.3 ± 0.01 µM
SI AChE/BChE [2]: 0.70
IC50 [2]: 7.24 ± 0.03 µM
SI BChE/AChE [3]: 1.43
IC50 [3]: 5.05 ± 0.02 µM
Mode of inhibition of AChE (AChE): non-competitive
Ki (AChE): 1.38 ± 0.62 µM

COc1cc2oc(-c3ccccc3)c(O[C@@H]3O[C@H](COC(C)=O)[C@@H](OC(C)=O)[C@H](OC(C)=O)[C@H]3OC(C)=O)c(=O)c2cc1I [Compound 2m, 6-Iodo-7-methoxy-2-phenyl-4H-chromen-4-one-3-O-2,3,4,6-O-tetraacetyl-β-d-glucopyranoside]
SI AChE/BChE [2]: 1.89
IC50 [2]: 29.8 ± 0.06 µM
SI BChE/AChE [3]: 0.53
IC50 [3]: 56.21 ± 0.01 µM

COc1cc2oc(-c3ccc(F)cc3)c(OC3OC(COC(C)=O)C(OC(C)=O)C(OC(C)=O)C3OC(C)=O)c(=O)c2cc1I (stereo not drawn) [Compound 2n, 2-(4-Fluorophenyl)-6-Iodo-7-methoxy-4H-chromen-4-one-3-O-2,3,4,6-O-tetraacetyl-β-d-glucopyranoside]
IC50 [1]: 14.4 ± 0.02 µM
SI AChE/BChE [2]: 0.18
IC50 [2]: 34.21 ± 0.02 µM
SI BChE/AChE [3]: 5.49
IC50 [3]: 6.33 µM and 6.23 µM

COc1cc2oc(-c3ccc(Cl)cc3)c(O[C@@H]3O[C@H](COC(C)=O)[C@@H](OC(C)=O)[C@H](OC(C)=O)[C@H]3OC(C)=O)c(=O)c2cc1I [Compound 2o, 2-(4-Chlorophenyl)-6-iodo-7-methoxy-4H-chromen-4-one-3-O-2,3,4,6-O-tetraacetyl-β-d-glucopyranoside]
SI AChE/BChE [2]: 0.78
IC50 [2]: 36.1 ± 0.02 µM
SI BChE/AChE [3]: 1.28
IC50 [3]: 28.12 ± 0.06 µM

COc1ccc(-c2oc3cc(OC)c(I)cc3c(=O)c2OC2OC(COC(C)=O)C(OC(C)=O)C(OC(C)=O)C2OC(C)=O)cc1 (stereo not drawn) [Compound 2p, 6-Iodo-7-methoxy-2-(4-methoxyphenyl)-4H-chromen-4-one-3-O-2,3,4,6-O-tetraacetyl-β-d-glucopyranoside]
Mode of inhibition of β-secretase (β-secretase (BACE-1) [4]): non-competitive
Ki (β-secretase (BACE-1) [4]): 2.94 ± 0.02 µM
IC50 [1]: 17.9 ± 0.04 µM
Mode of inhibition of BChE (BChE): non-competitive
Ki (BChE): 1.62 ± 0.03 µM
IC50 (β-secretase (BACE-1) [5]): 25.2 ± 0.15 µM
SI AChE/BChE [2]: 1.75
IC50 [2]: 5.21 ± 0.03 µM
SI BChE/AChE [3]: 0.57
IC50 [3]: 9.19 ± 0.03 µM
Mode of inhibition of AChE (AChE): non-competitive
Ki (AChE): 2.36 ± 0.32 µM

O=c1c(O)c(-c2ccc(O)c(O)c2)oc2cc(O)cc(O)c12 [Quercetin, quercetin, reference compound]
IC50 [1]: 3.1 µM
